Experimental findings from ChEMBL document CHEMBL4651402, “Screening of ~5500 FDA-approved drugs and clinical candidates for anti-SARS-CoV-2 activity” (2021) are described below.

This assay has as its system SARS-CoV-2. Kind of assay: microbe, parasite or virus in culture. To be noted: Severe acute respiratory syndrome coronavirus 2, Vero C1008, 48 h.

SMILES strings stand for the structures. Where only a bound is given, the exact number is not on record here.

`CC(C)=CCC[C@@](C)(O)[C@H]1CC=C(C)CC1` showed an IC50 of over 20 µM. Besides, the IC50 (read-out: pIC50 (converted)) was over 20 µM.
For `COCCOCCOCCOCCOC(=O)OC[n+]1ccc(N/C(=N/CCCCCCOc2ccc(Cl)cc2)NC#N)cc1`, the IC50 was over 20 µM. For the same molecule, the IC50 (read-out: pIC50 (converted)) is over 20 µM.
Take `CC(C)[C@@H](N)C(=O)O`: the IC50 is over 20 µM. Further, the IC50 (read-out: pIC50 (converted)) was over 20 µM.
Molecule `COc1ccc2c(c1)CN(C(=O)CCN1CCC(Cc3ccccc3)CC1)CCS2` gave an IC50 of over 20 µM. For the same molecule, the IC50 (read-out: pIC50 (converted)) was over 20 µM.
On to `C[N+](C)(C)NCCC(=O)O`, for which the IC50 was over 20 µM. For the setting “read-out: pIC50 (converted)”, the IC50 is over 20 µM.
`C[C@@H](N)C12CC3CC(CC(C3)C1)C2` had an IC50 of over 20 µM. For the same molecule, under “read-out: pIC50 (converted)”, the IC50 was over 20 µM.
Regarding `CCN(c1ccccc1)c1cc(NC)[n+](C)c(C)n1`, the IC50 was over 20 µM. Besides, the IC50 (read-out: pIC50 (converted)) was over 20 µM.
The molecule `C[C@@H]1CCC[C@H](C)N1` came in with an IC50 of over 20 µM. In addition, the IC50 (read-out: pIC50 (converted)) is over 20 µM.
`COc1c(O)cc2c(c1O)C1OC(CO)C(O)C(O)C1OC2=O` (configuration not stated) showed an IC50 of over 20 µM. The IC50 (read-out: pIC50 (converted)) is over 20 µM.
In turn, `CC(C)NCC(O)c1cc(O)cc(O)c1` (configuration not stated) returned an IC50 of over 20 µM. Further, the IC50 (read-out: pIC50 (converted)) is over 20 µM.
Molecule `Cc1cn([C@@H]2C[C@H](O)[C@@H](CO)O2)c(=O)[nH]c1=O` gave an IC50 of over 20 µM. For the same molecule, the IC50 (read-out: pIC50 (converted)) was over 20 µM.
On to `O[C@@H](CNC[C@H](O)[C@H]1CCc2cc(F)ccc2O1)[C@@H]1CCc2cc(F)ccc2O1`, for which the IC50 was over 20 µM. The IC50 (read-out: pIC50 (converted)) is over 20 µM.
Regarding `CC(C)=CCC/C(C)=C/COc1ccc2ccc(=O)oc2c1`, the IC50 was over 20 µM. The IC50 (read-out: pIC50 (converted)) is over 20 µM.
Molecule `COc1ccc(-c2ccc(N)[n+](CCCC(=O)O)n2)cc1` displayed an IC50 of over 20 µM. Also, the IC50 (read-out: pIC50 (converted)) was over 20 µM.
On to `COc1cccc(-c2cc(=O)c3ccccc3o2)c1N`, for which the IC50 was over 20 µM. For the same molecule, the IC50 (read-out: pIC50 (converted)) was over 20 µM.
`CO/N=C(\C(=O)N[C@@H]1C(=O)N2C(C(=O)O)=C(C[N+]3(C)CCCC3)CS[C@H]12)c1csc(N)n1` returned an IC50 of over 20 µM. For the same molecule, the IC50 (read-out: pIC50 (converted)) is over 20 µM.
`CCC[C@@H]1C[C@@H](C(=O)N[C@@H]([C@H]2O[C@H](SC)[C@H](O)[C@@H](O)[C@@H]2O)[C@@H](C)O)N(C)C1` came in with an IC50 of over 20 µM. Besides, for the setting “read-out: pIC50 (converted)”, the IC50 is over 20 µM.
On to `COC1COCCC1N[C@@H]1CC[C@@](C(=O)N2CCc3ncc(C(F)(F)F)cc3C2)(C(C)C)C1` (some centres not stated), for which the IC50 is over 20 µM. Further, where the note is “read-out: pIC50 (converted)”, the IC50 is over 20 µM.
As to `CCOC(=O)Nc1ccc(SCC2CO[C@](Cn3ccnc3)(c3ccc(Cl)cc3Cl)O2)cc1` (some centres not stated), the IC50 is over 20 µM. Besides, the IC50 (read-out: pIC50 (converted)) is over 20 µM.
Molecule `CCC[C@H](c1ccc(C(=O)NCCC(=O)O)cc1)[C@@H](c1ccc(Cl)cc1)c1c[nH]c2c(F)cc(C)cc12` returned an IC50 of over 20 µM. The IC50 (read-out: pIC50 (converted)) is over 20 µM.
Turning to `COC(=O)[C@H](C)N[P@](=O)(OC[C@H]1O[C@@H](n2cc(/C=C/Br)c(=O)[nH]c2=O)C[C@@H]1O)Oc1ccccc1`, the IC50 was over 20 µM. The IC50 (read-out: pIC50 (converted)) is over 20 µM.
For `CC[C@H]1OC(=O)[C@H](C)[C@@H](O[C@H]2C[C@@](C)(OC)[C@@H](O)[C@H](C)O2)[C@H](C)[C@@H](O[C@@H]2O[C@H](C)C[C@H](N(C)C)[C@H]2O)[C@](C)(O)C[C@@H](C)C(=O)[C@H](C)[C@H]2OC(=O)O[C@@]21C`, the IC50 was over 20 µM. Further, the IC50 (read-out: pIC50 (converted)) was over 20 µM.
`CC1CC(OC(=O)c2ccccc2)CC(C)(C)N1` (configuration not stated) gave an IC50 of over 20 µM. Moreover, the IC50 (read-out: pIC50 (converted)) is over 20 µM.
For `C/C=C1/C[C@@H](C)[C@](O)(CO)C(=O)OCC2=CCN3CC[C@@H](OC1=O)[C@@H]23`, the IC50 was over 20 µM. For the same molecule, for the setting “read-out: pIC50 (converted)”, the IC50 was over 20 µM.
`CCc1c(C(=O)c2cc(C)cc(C)c2)n(CC2CC=CC2)c(=O)[nH]c1=O` showed an IC50 of over 20 µM. Also, the IC50 (read-out: pIC50 (converted)) is over 20 µM.
For `C[C@@H](N)C(=O)N[C@@H](Cc1ccccc1)C(=O)O`, the IC50 is over 20 µM. Moreover, the IC50 (read-out: pIC50 (converted)) was over 20 µM.
